Source: patent US20250275966A1, “GABAA RECEPTOR MODULATOR SALTS, PARTICLES, AND USES THEREOF” (Engrail Therapeutics, Inc., priority 2022, published 2025)
Structures can show the parent of a compound that is named as a salt.

What was measured:
[1] = Pharmacokinetic analysis of Compound 1 and its salts after oral capsule administration (Example 4); format: in vivo, cynomolgus monkeys; details: single PO capsule, 30 mg/kg
Procedure: A pharmacokinetic analysis was performed comparing administration of Compound 1 with certain salts of Compound 1 after oral (PO) administration in 3 male cynomolgus monkeys. The subjects received a single PO oral gavage of active pharmaceutical ingredient (API) (e.g., Compound 1 fumarate, Compound 1 sulfate, Compound 1 hydrochloride, Compound 1 phosphate, Compound 1 tosylate, Compound 1 malonate, Compound 1 maleate, or Compound 1 free base) in a capsule at a dose of 30 mg/kg. Following dose administration, the animals were flushed with approximately 10 milliliters of tap water to ensure all API was administered. Animals were observed twice daily and at sample collection time-points for any abnormal clinical and behavioral signs. Body weights were taken prior to dosing and weekly thereafter until study termination. Blood samples (0.5 mL) were collected pre-dose, 15 minutes, 30 minutes, and 1, 2, 4, 6, 8, 10, 12, and 24 hours post-dose. Each blood sample was collected from the monkey's femoral, saphenous or other available vein via direct venipuncture, placed into a polypropylene tube containing K2EDTA as the anticoagulant, and gently inverted several times to mix. The blood samples were kept on wet ice until centrifugation. Blood was centrifuged within 10 minutes of collection. The samples were centrifuged at a temperature of 4° C., at 3,000 g, for 5 minutes. The resulting plasma (˜0.25 mL) was divided into two equal aliquots (125 μL each) into polypropylene tubes, designated as Set A and Set B, after centrifugation. Plasma samples designated for certain metabolites (Set A) were treated with 12.5 μL of 2 M ascorbic acid (plasma: ascorbic acid=[…], v:v) prepared beforehand by combining 0.352 g of ascorbic acid into 1 mL of sterile water in a glass vial and mixing thoroughly. […] Once plasma was prepared, the samples were snap frozen on dry ice. All plasma samples were stored frozen below −70° C. until analyzed.

[2] = Intrinsic dissolution rate and solubility in 0.1 N HCl with 1% Tween 80 (USP <1087>); format: physicochemical; details: for Intrinsic Dissolution Rate IDR: paddle 100 rpm, die surface 0.5 cm^2
Procedure: The intrinsic dissolution rate was determined by forming compacted pellets of approximately 75 mg of API using a compression force of 1200 pounds of force, and each pellet (die surface area: 0.5 cm^2) was immersed into a flat bottom vessel containing 500 mL of medium (aqueous 0.1 N HCl with 1% Tween 80 (polyoxyethylene (20) sorbitan monooleate)), using a Distek 2100A dissolution bath, and Distek Circulator/heater (set to 37° C.), with a paddle speed of 100 rpm. An aliquot of the sample (1 mL) was pulled from dissolution media at 15, 30, 45, 60, 75, 90, 105, and 120 minutes, filtered, and analyzed by HPLC. The slope of the dissolution profile corresponded to an intrinsic dissolution rate of hemi-fumarate salt Form B of 6.2 μg/(min·cm^2) as compared to 8.9 μg/(min·cm^2) for Compound 1 (free base). Determination of intrinsic dissolution rate (IDR) was performed for Compound 1 and seven different salts of Compound 1 according to USP <1087> in 0.1 N hydrochloric acid with 1% Tween 80 (Polyoxyethylene […] sorbitan monooleate). Compacted pellets containing approximately 75 mg API were prepared using a compression force of 1200 pounds of force, and each pellet (die surface area: 0.5 cm^2) was immersed into a flat bottom vessel containing 500 mL of medium, using a Distek 2100A dissolution bath, and Distek Circulator/heater (set to 37° C.), with a paddle speed of 100 rpm. An aliquot of the sample (1 mL) was pulled from dissolution media at 15, 30, 45, 60, 75, 90, 105, and 120 minutes, filtered, and analyzed by HPLC. HPLC for IDR and solid-state stability analyses were conducted with an Agilent 1260 Infinity system equipped with a G1311B Quad pump, […] Autosampler, G1330B auto-sampler thermostat, G1316A Thermostatted Column Compartment with a column switch valve, and […] diode array detector.

[3] = Solid-state stability by HPLC and XRPD; format: physicochemical; details: after 4 weeks
Procedure: Solid-state stability of the fumarate salt of Compound 1 was assessed after storage at the following conditions for 2 and 4 weeks by HPLC and XRPD: 40° C./75% RH (opened); and 50° C./ambient RH (closed). […] Solid-state stability of Compound 1 and seven salts of Compound 1, as in Example 8, was assessed after storage at the following conditions for 2 and 4 weeks by HPLC and PXRD: 40° C./75% RH (opened); and 50° C./ambient RH (closed). HPLC for IDR and solid-state stability analyses were conducted with an Agilent 1260 Infinity system equipped with a G1311B Quad pump, […] Autosampler, G1330B auto-sampler thermostat, G1316A Thermostatted Column Compartment with a column switch valve, and […] diode array detector.

[4] = format: physicochemical
Procedure: A hemi-fumarate Form A (acetonitrile solvate) and hemi-fumarate Form B (non-solvated) of 3-(2,5-difluorophenyl)-7-[1,1-di(methyl-d3)ethyl-2,2,2-d3]-6-[(1-methyl-1H-1,2,4-triazol-5-yl)methoxy]-1,2,4-triazolo[4,3-b]pyridazine were prepared. A seed crystal for Form B was prepared by first combining 20.3 mg ([…]) 3-(2,5-difluorophenyl)-7-[1,1-di(methyl-d3)ethyl-2,2,2-d3]-6-[(1-methyl-1H-1,2,4-triazol-5-yl)methoxy]-1,2,4-triazolo[4,3-b]pyridazine with 1000 μL acetone. Fumaric acid/EtOH was added ([…], 1.0 eq) and the sample was continuously stirred while cycling the temperature between 40° C. and 5° C. (heating and cooling at 2° C./min. with 1 hour hold at 40° C. and 5° C.) for 48 hours. The samples were isolated at 5° C. and the suspension was equilibrated with stirring at 20° C. for 2 hours. Birefringent solids were harvested by filtration at room temperature and air-dried overnight. 3-(2,5-difluorophenyl)-7-[1,1-di(methyl-d3)ethyl-2,2,2-d3]-6-[(1-methyl-1H-1,2,4-triazol-5-yl)methoxy]-1,2,4-triazolo[4,3-b]pyridazine (5.51 mmol) was combined with acetone ([…], 16 vol). To the resulting solution (with minimal residual solids), fumaric acid (575 mg, 1.0 eq) was added, followed by seeding, e.g., with Form B (˜10 mg). […]

[5] = Gravimetric vapor sorption (GVS); format: physicochemical
Procedure: Selected physicochemical data of Form B were collected. Hemi-fumarate salt Form B was determined to be crystalline by polarized-light microscopy (PLM) and XRPD. […] (ΔH=1.7 J/g), followed immediately by a sharp endotherm at 199.6° C. […] (see FIG. 7). Proton NMR confirmed a hemi-salt with 0.5:1 CI:API ratio. […] No change in the XRPD pattern was observed post GVS.
GVS experiments were conducted on a Surface Measurement Systems DVS-Advantage. The experiments were performed at 25° C. The instrument was operated in step mode and the relative humidity was increased in 10% RH increments from 40% RH to 75% RH, then decreased from 75% RH to 5% RH, then increased a second time from 5% RH to 95% RH, then decreased from 95% RH to 5% RH. The mass equilibrium criterion was set at 0.003% change in mass over time (dm/dt). A minimum step time of 20 minutes and a maximum step time of 240 minutes were specified.

[6] = Oral non-human primate crossover PK study (Example 7); format: in vivo, cynomolgus monkeys; details: both micronized and non-micronized form; cynomolgus monkeys, single PO capsule
From the text: An objective of this study is to determine the Pharmacokinetic (PK) profile of the Test Article following a single oral administration to four male non-human primate cynomolgus monkeys with one (1) week wash out periods.
Four male animals are used for this study, and the four study animals are used for each of three dosing phases with one-week washout periods. Food is withheld overnight prior to dose administration, and food is returned four hours post-dose administration. Water is provided ad libitum by automatic watering device. Two of the four animals are previously treated with Compound 1, and the other two are Compound 1 naive. Test Article (M-3, N-3, or K-13) are provided as capsulized powders; stored at room temperature protected from light in, for example, a polyolefin bottle.

[7] = 3 male cynomolgus monkeys, plasma Compound 1
[8] = 0.1 N HCl with 1% Tween 80, 37° C., 500 mL, pellet about 75 mg

[2H]C([2H])([2H])C(c1cc2nnc(-c3cc(F)ccc3F)n2nc1OCc1ncnn1C)(C([2H])([2H])[2H])C([2H])([2H])[2H] [Hydrochloride Salt, 3-(2,5-difluorophenyl)-7-[1,1-di(methyl-d3)ethyl-2,2,2-d3]-6-[(1-methyl-1H-1,2,4-triazol-5-yl)methoxy]-1,2,4-triazolo[4,3-b]pyridazine]
AUClast [1, 7]: 25402 ng·h/mL | Cmax [1, 7]: 1583 ng/mL | Tmax [1, 7]: 4.0 h | Solubility, time point 15 min [2, 8]: 0.452 µg/mL | Solubility, time point 120 min [2, 8]: 1.13 µg/mL | Intrinsic Dissolution Rate IDR ([2]; 0.1 N HCl with 1% Tween 80, 37° C., listed as HCl Salt): 6.9 μg/(min · cm^2) | solubility at 30 min ([2]; 0.1 N HCl with 1% Tween 80, 37 °C, aqueous with cosolvent or surfactant or cyclodextrin, 500 mL, pellet about 75 mg, 30 min, read-out: Solubility, time point 30 min): 0.358 µg/mL | solubility at 45 min ([2]; 0.1 N HCl with 1% Tween 80, 37 °C, aqueous with cosolvent or surfactant or cyclodextrin, 500 mL, pellet about 75 mg, 45 min, read-out: Solubility, time point 45 min): 0.561 µg/mL | solubility at 60 min ([2]; 0.1 N HCl with 1% Tween 80, 37 °C, aqueous with cosolvent or surfactant or cyclodextrin, 500 mL, pellet about 75 mg, 60 min, read-out: Solubility, time point 60 min): 0.59 µg/mL | solubility at 75 min ([2]; 0.1 N HCl with 1% Tween 80, 37 °C, aqueous with cosolvent or surfactant or cyclodextrin, 500 mL, pellet about 75 mg, 75 min, read-out: Solubility, time point 75 min): 0.723 µg/mL | solubility at 90 min ([2]; 0.1 N HCl with 1% Tween 80, 37 °C, aqueous with cosolvent or surfactant or cyclodextrin, 500 mL, pellet about 75 mg, 90 min, read-out: Solubility, time point 90 min): 0.847 µg/mL | solubility at 105 min ([2]; 0.1 N HCl with 1% Tween 80, 37 °C, aqueous with cosolvent or surfactant or cyclodextrin, 500 mL, pellet about 75 mg, 105 min, read-out: Solubility, time point 105 min): 0.989 µg/mL | solubility ([2]; 0.1 N HCl with 1% Tween 80, 37 °C, aqueous with cosolvent or surfactant or cyclodextrin, sum of the 15-120 min time points, read-out: Solubility, Cumulative): 5.65 µg/mL | Solid-state stability, XRPD pattern ([3]; 40° C./75% RH): small signal at 10° 2θ of Compound 1 (free base)

[2H]C([2H])([2H])C(c1cc2nnc(-c3cc(F)ccc3F)n2nc1OCc1ncnn1C)(C([2H])([2H])[2H])C([2H])([2H])[2H] [Form A, 3-(2,5-difluorophenyl)-7-[1,1-di(methyl-d3)ethyl-2,2,2-d3]-6-[(1-methyl-1H-1,2,4-triazol-5-yl)methoxy]-1,2,4-triazolo[4,3-b]pyridazine]
solid form stability at ambient conditions [4]: converted to Form B

[2H]C([2H])([2H])C(c1cc2nnc(-c3cc(F)ccc3F)n2nc1OCc1ncnn1C)(C([2H])([2H])[2H])C([2H])([2H])[2H] [Fumarate Salt, 3-(2,5-difluorophenyl)-7-[1,1-di(methyl-d3)ethyl-2,2,2-d3]-6-[(1-methyl-1H-1,2,4-triazol-5-yl)methoxy]-1,2,4-triazolo[4,3-b]pyridazine]
Cmax [1, 7]: 3080 ng/mL | Tmax [1, 7]: 4.7 h | Cmax ([1]; 3 male cynomolgus monkeys, plasma Compound 1, listed as fumarate salt of Compound 1, 30 mg/kg): about 3080 ng/mL | AUClast higher than that of Compound 1 ([1]; male cynomolgus monkeys): over 50% | Cmax higher than that of Compound 1 (free base) ([1]; male cynomolgus monkeys): over 98% | AUC(0-t) ([1]; male, cynomolgus monkey, plasma, po, male cynomolgus monkeys): 38900 ng·h/mL | Solubility, time point 15 min [2, 8]: 0.342 µg/mL | Solubility, time point 30 min ([2]; 0.1 N HCl with 1% Tween 80, 37° C., 500 mL, pellet about 75 mg, 30 min): 0.404 µg/mL | Solubility, time point 45 min ([2]; 0.1 N HCl with 1% Tween 80, 37° C., 500 mL, pellet about 75 mg, 45 min): 0.46 µg/mL | Solubility, time point 60 min ([2]; 0.1 N HCl with 1% Tween 80, 37° C., 500 mL, pellet about 75 mg, 60 min): 0.576 µg/mL | Solubility, time point 75 min ([2]; 0.1 N HCl with 1% Tween 80, 37° C., 500 mL, pellet about 75 mg, 75 min): 0.684 µg/mL | Solubility, time point 90 min ([2]; 0.1 N HCl with 1% Tween 80, 37° C., 500 mL, pellet about 75 mg, 90 min): 0.79 µg/mL | Solubility, time point 105 min ([2]; 0.1 N HCl with 1% Tween 80, 37° C., 500 mL, pellet about 75 mg, 105 min): 0.87 µg/mL | Solubility, time point 120 min [2, 8]: 0.993 µg/mL | Intrinsic Dissolution Rate IDR ([2]; 0.1 N HCl with 1% Tween 80, 37° C.): 6.2 μg/(min · cm^2) | Intrinsic Dissolution Rate IDR ([2]; 0.1 N HCl with 1% Tween 80, 37° C., listed as hemi-fumarate salt Form B): 6.2 μg/(min · cm^2) | Solubility, Cumulative ([2]; sum of the 15-120 min time points, 0.1 N HCl with 1% Tween 80, 37° C.): 5.119 µg/mL | XRPD pattern post GVS ([5]; after GVS): No change | moisture uptake (GVS) ([5]; between 5-95% RH, 25° C.): < 0.1 % wt | exposure to Compound 1 as compared to subjects dosed with the free base [6]: superior exposure | Solid-state stability by HPLC or XRPD ([3]; 40° C./75% RH (opened) and 50° C./ambient RH (closed)): No significant changes
